According to US20260167656A1, “PHOSPHORAMIDATE COMPOUNDS AND USES THEREOF” (ALLORION THERAPEUTICS INC, priority 2022, published 2026):

Assays:
[1] = system: non-small cell lung cancer cell line H460; assay: H460 proliferation assay in the presence of 3 uM ASP9521 (AKR1C3 specific inhibitor); format: cell-based, human; conditions: H460 cells, CellTiter-Glo, 72 hours, in the presence of 3 uM ASP9521 added 4 hours prior to compounds; read-out: CTG H460: Avg IC50 (nM) [Assay Condition: ASP9521]
Method in brief: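 AKR1C3 blocked with 3 uM ASP9521 given 4 h ahead of test compounds. H460 cells, plated 24 h earlier, were then treated for 72 h at 37 °C in 5% CO2. CellTiter-Glo luminescence gave viability.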

[2] = system: non-small cell lung cancer cell line H460; assay: In vitro human cancer cell line cytotoxicity (proliferation) assay in H460, CellTiter-Glo, 72 hours; format: cell-based; conditions: DMSO condition (no AKR1C3 inhibitor), read-out: CTG H460: Avg IC50 (nM) [Assay Condition: DMSO]
Method in brief: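 IC50s in nM come from CellTiter-Glo viability read after 72 h of compound exposure. Compounds went in from 10 mM DMSO stocks onto H460 cells, which had been plated at 3×10^3 per well and grown 24 h beforehand at 37 °C, 5% CO2.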

[3] = Homo sapiens, NCI-H460, H460 cells
[4] = Homo sapiens, NCI-H460, 72 h, H460 cells

Compound	IC50 [1]	IC50 [2, 3]	IC50 ([2]; H460 cells)	IC50 [2, 4]
Cn1cnc2cc(Oc3c([N+](=O)[O-])ccc4c3CC[C@@H]4OP(=O)(N3CC3)N3CC3)ccc21 [Example 396]	2480 nM	10 to 50 nM	–	–
Cn1cnc2cc(Oc3c([N+](=O)[O-])ccc4c3CC[C@H]4OP(=O)(N3CC3)N3CC3)ccc21 [Example 397]	956 nM	< 10 nM	–	–
Cn1cc2ccc(Oc3c([N+](=O)[O-])ccc4c3CC[C@@H]4OP(=O)(N3CC3)N3CC3)cc2n1 [Example 399]	1110 nM	–	< 10 nM	–
O=[N+]([O-])c1ccc2c(c1Oc1ccc3ncccc3c1)CC[C@@H]2OP(=O)(N1CC1)N1CC1 [Example 400]	452 nM	–	–	< 10 nM
Cn1ccc2cc(F)c(Oc3c([N+](=O)[O-])ccc4c3CCC4OP(=O)(N3CC3)N3CC3)cc21 (centres unmarked) [Example 402]	712 nM	–	< 10 nM	–
O=C1CCCCN1c1cccc(Oc2c([N+](=O)[O-])ccc3c2CCC3OP(=O)(N2CC2)N2CC2)c1 (centres unmarked) [Example 410]	4660 nM	–	10 to 50 nM	–
CC1(C)CN(c2cccc(Oc3c([N+](=O)[O-])ccc4c3CCC4OP(=O)(N3CC3)N3CC3)c2)C(=O)O1 (centres unmarked) [Example 417]	712 nM	–	< 10 nM	–
O=[N+]([O-])c1ccc2c(c1Oc1ccc(F)c(-n3cc(F)cn3)c1)CC[C@H]2OP(=O)(N1CC1)N1CC1 [Example 420]	675 nM	–	–	< 10 nM
O=[N+]([O-])c1ccc2c(c1Oc1ccc(F)c(-n3cc(F)cn3)c1)CC[C@@H]2OP(=O)(N1CC1)N1CC1 [Example 421]	1400 nM	–	–	< 10 nM
O=[N+]([O-])c1ccc2c(c1Oc1ccc(-n3cc(F)cn3)cc1)CCC2OP(=O)(N1CC1)N1CC1 (centres unmarked) [Example 422]	821 nM	–	< 10 nM	–
O=[N+]([O-])c1ccc2c(c1Oc1ccc(-n3cccn3)cc1)CCC2OP(=O)(N1CC1)N1CC1 (centres unmarked) [Example 424]	779 nM	–	< 10 nM	–
Cc1cnn(-c2ccc(Oc3c([N+](=O)[O-])ccc4c3CCC4OP(=O)(N3CC3)N3CC3)cc2)c1 (centres unmarked) [Example 425]	5270 nM	–	< 10 nM	–
CC1(C)CN(c2ccc(Oc3c([N+](=O)[O-])ccc4c3CCC4OP(=O)(N3CC3)N3CC3)cc2)C(=O)O1 (centres unmarked) [Example 426]	638 nM	–	< 10 nM	–
O=C1CCCN1c1cc(Oc2c([N+](=O)[O-])ccc3c2CCC3OP(=O)(N2CC2)N2CC2)ccc1F (centres unmarked) [Example 427]	756 nM	–	< 10 nM	–
O=C1CCCN1c1cc(Oc2c([N+](=O)[O-])ccc3c2CC[C@H]3OP(=O)(N2CC2)N2CC2)ccc1F [Example 428]	1200 nM	–	< 10 nM	–
Cc1cnn(-c2cccc(Oc3c([N+](=O)[O-])ccc4c3CC[C@@H]4OP(=O)(N3CC3)N3CC3)c2)c1 [Example 429]	1960 nM	–	–	< 10 nM
Cc1ccn(-c2cccc(Oc3c([N+](=O)[O-])ccc4c3CC[C@H]4OP(=O)(N3CC3)N3CC3)c2)n1 [Example 430]	4860 nM	–	–	< 10 nM
O=[N+]([O-])c1ccc2c(c1Oc1ccc(F)c(OCC(F)(F)F)c1)CC[C@H]2OP(=O)(N1CC1)N1CC1 [Example 431]	238 nM	–	–	< 10 nM
O=[N+]([O-])c1ccc2c(c1Oc1cccc(-n3cc(C(F)F)cn3)c1)CC[C@@H]2OP(=O)(N1CC1)N1CC1 [Example 432]	4170 nM	–	–	< 10 nM
Cc1ccnn1-c1cc(Oc2c([N+](=O)[O-])ccc3c2CC[C@@H]3OP(=O)(N2CC2)N2CC2)ccc1F [Example 433]	2590 nM	–	–	< 10 nM
Cc1nncn1-c1cccc(Oc2c([N+](=O)[O-])ccc3c2CC[C@@H]3OP(=O)(N2CC2)N2CC2)c1 [Example 434]	1140 nM	–	–	< 10 nM
O=[N+]([O-])c1ccc2c(c1Oc1cccc(-n3cncn3)c1)CC[C@@H]2OP(=O)(N1CC1)N1CC1 [Example 435]	482 nM	–	–	< 10 nM
O=[N+]([O-])c1ccc2c(c1Oc1cccc(-n3ncnn3)c1)CC[C@@H]2OP(=O)(N1CC1)N1CC1 [Example 436]	138 nM	–	–	< 10 nM
O=[N+]([O-])c1ccc2c(c1Oc1cccc(-n3ncnn3)c1)CC[C@H]2OP(=O)(N1CC1)N1CC1 [Example 437]	235 nM	–	–	< 10 nM
O=[N+]([O-])c1ccc2c(c1Oc1ccc(F)c(-n3cncn3)c1)CC[C@@H]2OP(=O)(N1CC1)N1CC1 [Example 438]	416 nM	–	–	< 10 nM
Cc1ccn(-c2cc(Oc3c([N+](=O)[O-])ccc4c3CC[C@@H]4OP(=O)(N3CC3)N3CC3)ccc2F)n1 [Example 439]	2090 nM	–	–	< 10 nM

Compound	IC50 [1]	IC50 [2, 3]	IC50 ([2]; H460 cells)	IC50 [2, 4]
Cc1ncn(-c2cc(Oc3c([N+](=O)[O-])ccc4c3CC[C@@H]4OP(=O)(N3CC3)N3CC3)ccc2F)n1 [Example 440]	897 nM	–	–	< 10 nM
O=[N+]([O-])c1ccc2c(c1Oc1ccc(F)c(-n3ncnn3)c1)CC[C@@H]2OP(=O)(N1CC1)N1CC1 [Example 441]	158 nM	–	–	< 10 nM
O=[N+]([O-])c1ccc2c(c1Oc1ccc(F)c(-n3ccc(F)n3)c1)CC[C@@H]2OP(=O)(N1CC1)N1CC1 [Example 442]	667 nM	–	–	< 10 nM
O=[N+]([O-])c1ccc2c(c1Oc1ccc(F)c(-n3ccc(F)n3)c1)CC[C@H]2OP(=O)(N1CC1)N1CC1 [Example 443]	571 nM	–	–	< 10 nM
O=[N+]([O-])c1ccc2c(c1Oc1cccc(-n3ccc(F)n3)c1)CC[C@@H]2OP(=O)(N1CC1)N1CC1 [Example 444]	192 nM	–	–	< 10 nM
O=[N+]([O-])c1ccc2c(c1Oc1cccc(-n3ccc(F)n3)c1)CC[C@H]2OP(=O)(N1CC1)N1CC1 [Example 445]	357 nM	–	–	< 10 nM
O=[N+]([O-])c1ccc2c(c1Oc1cc(O)cc(OCC3CC3)c1)CC[C@@H]2OP(=O)(N1CC1)N1CC1 [Example 446, (S)-4-(3-(cyclopropylmethoxy)-5-hydroxyphenoxy)-5-nitro-2,3-dihydro-1H-inden-1-yl di(aziridin-1-yl)phosphinate]	1210 nM	–	–	< 10 nM
COc1cccc(Oc2c([N+](=O)[O-])ccc3c2CC[C@H]3OP(=O)(N2CC2)N2CC2)c1 [Example 448]	647 nM	–	< 10 nM	–
O=[N+]([O-])c1ccc2c(c1Oc1cccc(OC(F)(F)F)c1)CC[C@@H]2OP(=O)(N1CC1)N1CC1 [Example 449]	570 nM	–	< 10 nM	–
O=[N+]([O-])c1ccc2c(c1Oc1cccc(OC(F)(F)F)c1)CC[C@H]2OP(=O)(N1CC1)N1CC1 [Example 450]	1060 nM	–	< 10 nM	–
CC(C)Oc1cccc(Oc2c([N+](=O)[O-])ccc3c2CC[C@@H]3OP(=O)(N2CC2)N2CC2)c1 [Example 452]	2240 nM	–	< 10 nM	–
CC(C)Oc1cccc(Oc2c([N+](=O)[O-])ccc3c2CC[C@H]3OP(=O)(N2CC2)N2CC2)c1 [Example 453]	819 nM	–	< 10 nM	–
Cn1cc(Oc2cccc(Oc3c([N+](=O)[O-])ccc4c3CC[C@H]4OP(=O)(N3CC3)N3CC3)c2)cn1 [Example 455]	1660 nM	–	< 10 nM	–
O=[N+]([O-])c1ccc2c(c1Oc1cccc(S(=O)(=O)C3CC3)c1)CC[C@H]2OP(=O)(N1CC1)N1CC1 [Example 456]	940 nM	–	< 10 nM	–
O=[N+]([O-])c1ccc2c(c1Oc1cccc(OC(F)F)c1)CC[C@@H]2OP(=O)(N1CC1)N1CC1 [Example 457]	768 nM	–	< 10 nM	–
O=[N+]([O-])c1ccc2c(c1Oc1cccc(OC(F)F)c1)CC[C@H]2OP(=O)(N1CC1)N1CC1 [Example 458]	506 nM	–	< 10 nM	–
COc1cncc(Oc2c([N+](=O)[O-])ccc3c2CC[C@H]3OP(=O)(N2CC2)N2CC2)c1 [Example 462]	917 nM	–	< 10 nM	–
O=[N+]([O-])c1ccc2c(c1Oc1cccc(OC3CCC3)c1)CC[C@@H]2OP(=O)(N1CC1)N1CC1 [Example 463]	478 nM	–	< 10 nM	–
O=[N+]([O-])c1ccc2c(c1Oc1cccc(OC3CCC3)c1)CC[C@H]2OP(=O)(N1CC1)N1CC1 [Example 464]	1390 nM	–	< 10 nM	–
CSc1ccc(Oc2c([N+](=O)[O-])ccc3c2CC[C@@H]3OP(=O)(N2CC2)N2CC2)cc1 [Example 466]	975 nM	–	< 10 nM	–
O=[N+]([O-])c1ccc2c(c1Oc1cccc(OC3CC3)c1)CC[C@H]2OP(=O)(N1CC1)N1CC1 [Example 467]	4160 nM	–	< 10 nM	–
O=[N+]([O-])c1ccc2c(c1Oc1cccc(OC3COC3)c1)CC[C@H]2OP(=O)(N1CC1)N1CC1 [Example 468]	660 nM	–	< 10 nM	–
O=[N+]([O-])c1ccc2c(c1Oc1cccc(OC3CCCC3)c1)CC[C@@H]2OP(=O)(N1CC1)N1CC1 [Example 469]	1130 nM	–	< 10 nM	–
O=[N+]([O-])c1ccc2c(c1Oc1cccc(OC3CCCC3)c1)CC[C@H]2OP(=O)(N1CC1)N1CC1 [Example 470]	1150 nM	–	< 10 nM	–
O=[N+]([O-])c1ccc2c(c1Oc1cncc(OC3CC3)c1)CC[C@@H]2OP(=O)(N1CC1)N1CC1 [Example 471]	3060 nM	–	< 10 nM	–
CSc1cccc(Oc2c([N+](=O)[O-])ccc3c2CC[C@H]3OP(=O)(N2CC2)N2CC2)c1 [Example 472]	583 nM	–	< 10 nM	–
